Measured values published in ChEMBL document CHEMBL1153779, “Tyrosinase-inhibitory constituents from the twigs of Cinnamomum cassia” (J Nat Prod, 2009).

molecular target: T1, Tyrosinase (Agaricus bisporus, UniProt O42713)
T1 sequence (O42713 whole entry): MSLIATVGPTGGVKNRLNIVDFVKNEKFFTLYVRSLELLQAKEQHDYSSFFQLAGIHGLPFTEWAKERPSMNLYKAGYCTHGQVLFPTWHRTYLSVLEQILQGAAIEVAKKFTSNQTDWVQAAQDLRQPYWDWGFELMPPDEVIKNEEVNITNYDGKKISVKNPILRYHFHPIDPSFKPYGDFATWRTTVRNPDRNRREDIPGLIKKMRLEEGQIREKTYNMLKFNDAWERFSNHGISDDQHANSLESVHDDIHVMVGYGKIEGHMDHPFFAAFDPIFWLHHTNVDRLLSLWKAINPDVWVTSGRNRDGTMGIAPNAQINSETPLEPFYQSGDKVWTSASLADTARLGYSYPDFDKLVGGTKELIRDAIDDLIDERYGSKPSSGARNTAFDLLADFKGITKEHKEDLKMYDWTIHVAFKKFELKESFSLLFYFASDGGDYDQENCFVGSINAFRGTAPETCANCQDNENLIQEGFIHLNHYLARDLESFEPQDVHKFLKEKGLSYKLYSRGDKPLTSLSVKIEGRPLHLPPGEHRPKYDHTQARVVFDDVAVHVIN
Description: Inhibition of mushroom tyrosinase after 10 mins by spectrophotometry

SMILES	IC50
OC[C@H]1O[C@@H](OCCc2ccccc2)[C@H](O)[C@@H](O)[C@@H]1O[C@@H]1OC[C@](O)(CO)[C@H]1O	710 µM
O=C/C=C/c1ccccc1	520 µM
C[C@@H]1O[C@@H](OC[C@H]2O[C@@H](Oc3ccccc3/C=C/CO)[C@H](O[C@@H]3[C@@H](OCc4ccccc4)O[C@@H](CO[C@@H]4OC[C@](O)(CO)[C@H]4O)[C@H](O)[C@H]3O)[C@@H](O)[C@@H]2O)[C@H](O)[C@H](O)[C@H]1O [CINNACASSINOL]	940 µM
OC/C=C/c1ccccc1 [CINNAMIC ALCOHOL]	> 10000 µM
O=C(O)CCc1ccccc1O[C@@H]1O[C@H](CO)[C@@H](O)[C@H](O)[C@H]1O [DIHYDROMELILOTOSIDE]	570 µM
Oc1ccc(O)cc1 [HYDROQUINONE]	4210 µM
COC(=O)CCc1ccccc1O[C@@H]1O[C@H](CO)[C@@H](O)[C@H](O)[C@H]1O [METHYL DIHYDROMELILOTOSIDE]	630 µM
O[C@@H]1[C@@H](O)[C@@H](OC/C=C/c2ccccc2)O[C@H](CO[C@@H]2OC[C@H](O)[C@H](O)[C@H]2O)[C@H]1O [ROSAVIN]	> 10000 µM

Further lines, results first:

IC50	SMILES
260 µM	COc1c(O)cccc1/C=C/C=O
420 µM	COc1ccccc1/C=C/C=O
470 µM	O=C/C=C/c1ccccc1O [2-HYDROXYCINNAMALDEHYDE]
240 µM	COc1cc(/C=C/C=O)ccc1O [CONIFERYL ALDEHYDE]
670 µM	O=C(CCc1ccccc1O)O[C@@H]1O[C@H](CO)[C@@H](O)[C@H](O)[C@H]1O [DIHYDROCINNACASSIDE]
670 µM	O=C(O)/C=C/c1ccccc1O [O-COUMARIC ACID]
